Measurements published in US20250312326A1, “PHARMACEUTICAL COMPOSITION OF ANTIPLATELET DRUG, AND USE THEREOF” (SHANGHAI CUREGENE PHARMACEUTICAL CO., LTD., priority 2022, published 2025).
Each block holds one compound with its values, some of them ahead of it.

Key:
[1] = Pharmacokinetic in rats: thiol active metabolite in plasma; type: in vivo, Male Sprague-Dawley rats; conditions: rat plasma, oral, 10 mg/kg
Procedure: Male Sprague-Dawley rats were used to conduct pharmacokinetic experiment.
Test compounds (clopidogrel and exemplary compounds provided herein) was administrated orally or intravenously to rat under fast condition. Blood samples were collected via jugular vein at 5 min, 15 min, 30 min, 60 min and 120 min time points with EDTA-K2 (anticoagulant), 3′-methoxyphenacyl bromide (MPBr, derivatization reagent) and phenylmethylsulfonyl fluoride (PMSF, stabilizer). Plasma samples were then harvested by centrifuging at 1500 g for 10 min under 2˜8° C. and stored at −80° C. after separation. Plasma samples were loaded to a LC-MS/MS instrument after extraction to determine the concentration of the thiol active metabolite.

platelet aggregation = test: Antiaggregatory action in rats (ex vivo ADP-induced platelet aggregation); design: species or system Male Sprague-Dawley rats; conditions: rat, oral
Procedure: Male Sprague-Dawley rats were used for ex vivo platelet aggregation experiments. […] The number of platelets in PRP was measured by hematology analyzer (Siemens, ADVIA2120), and adjusted to 4×10^8/mL with PPP. Platelet aggregation was determined using turbidimetric aggregometry method by an automatic platelet aggregometer ([…]). The aggregometer was primarily warmed up to 37° C., and PRP (290 μL) sample was added to the cuvette and set in the automatic platelet aggregometer. […] Antiaggregatory action of test compounds was expressed as inhibition (%) which determined by the relation: […]

[2] = human body; cited from earlier work
[3] = loading dose 300-600 mg; cited from earlier work

peak concentration of the thiol active metabolite compared with clopidogrel [1]: significantly higher
Compound: COC(=O)[C@H](c1ccccc1Cl)N1CCC(SCOC(=O)OC(C)C)/C(=C/C(=O)O)C1 (stereo partly shown) [Compound 1a]

peak concentration of the thiol active metabolite compared with clopidogrel [1]: significantly higher
Compound: COC(=O)[C@H](c1ccccc1Cl)N1CCC(SCOC(=O)OC(C)C)/C(=C\C(=O)O)C1 (stereo partly shown) [Compound 1b]
inhibition at 2 mg/kg (platelet aggregation; Platelet, 2 mg/kg, ADP 10 μM, read-out: maximum inhibition of platelet aggregation): ~45%
time to maximum inhibition of platelet aggregation (platelet aggregation; 2 mg/kg): 60 min

peak concentration of the thiol active metabolite compared with clopidogrel [1]: significantly higher
Compound: CCOC(=O)/C=C1\CN([C@H](C(=O)OC)c2ccccc2Cl)CCC1SCOC(=O)OC(C)C (stereo partly shown) [Compound 2a]

Compound: COC(=O)[C@H](c1ccccc1Cl)N1CCc2sccc2C1 [clopidogrel, Clopidogrel]
fraction producing inactive metabolites through non-oxidative hydrolysis [2]: about 85%
fraction undergoing two-step oxidation (cytochrome P450, mainly CYP2C19) to active metabolite H4 [2]: about 15%
onset of therapeutic effect after loading dose administration [3]: 2 h
inhibition at 10 mg/kg (platelet aggregation; Platelet, 10 mg/kg, ADP 10 μM, read-out: maximum inhibition of platelet aggregation): ~45%
time to maximum inhibition of platelet aggregation (platelet aggregation; 10 mg/kg): about 120 minutes
